This is an account of results in US20080118493A1, “Elevated Hedgehog Pathway Activity In Digestive System Tumors, And Methods Of Treating Digestive Sytem Tumors Having Elevated Hedgehog Pathway Activity” (priority 2003, published 2008).

Data set [1] relates to tumor cell lines from esophagus, stomach, biliary tract, and pancreas. Nature of the data set: cells. As for the experimental part:
Viable cell mass was determined by optical density measurements at 490 nm (O.D.490) at 2 and 4 days using the CellTiter96® colorimetric assay (Promega; Madison Wis.). Relative growth was calculated as {OD (day 4)-OD (day 2)}/OD (day 2).

The subject of data set [2] is PZp53MED1 medulloblastoma cells. The note with it: medulloblastoma-derived cells; cited from earlier work.
The test system of data set [3] is HuCCT1 human cholangiocarcinoma xenograft. The data set is described as follows: HuCCT1 xenograft treatment in athymic (nude) mice. The class given is in vivo. The note with it: 50 mg/kg/day, subcutaneous injection.
Data set [4] deals with Hh pathway activity. Nature of the data set: Hh-responsive reporter assay in first passage pancreas carcinoma xenograft cells. The class given is cell-based, human. Particulars: PTCH-expressing primary xenografts; 3.0 μM cyclopamine. The source says:
(§1) Cells and tissues: Origins and sources of cells and tissues are described in the Table (below). First passage pancreatic cancer xenografts were derived from freshly harvested pancreaticoduodenectomy specimens as described^14. […] After reaching 25 mm in greatest dimension, xenograft tumors were harvested, minced, and plated into tissue culture vessels in RPMI, 20% Fetal Bovine Serum (FBS) for assays as described below. The diagnosis of frozen samples from gastric and pancreatic adenocarcinoma resections and adjacent normal stomach and pancreas was microscopically confirmed by two pathologists, and RNA was prepared as described^14.
(§2) Hh-responsive reporter assays: Hh-responsive firefly luciferase and control SV-40 Renilla luciferase reporter assays were performed on subconfluent triplicate cultures as described^22.

Data set [5] relates to single passage pancreatic cancer xenograft cells. Nature of the data set: Proliferation (MTS) assay in first passage pancreatic cancer xenograft cells. It is filed as cell-based, human.
Text: as §1

Data set [6] has as its system PZp53MED1 medulloblastoma cells. Nature of the data set: Proliferation assay in medulloblastoma cells. The class given is cell-based. Particulars: medulloblastoma cells from a mouse model of Gorlin syndrome, loss of PTCH function.
For data set [7], the system named is Hh pathway activity. Nature of the data set: Hh-inducible reporter assay in HuCCT1 cholangiocarcinoma cells. The class given is cell-based, human. The note with it: purified SHH ligand to 25 nM. On the procedure:
as §2

As for `CC1=C2C[C@H]3[C@@H](CC=C4C[C@@H](O)CC[C@@]43C)[C@@H]2CC[C@]12O[C@@H]1C[C@H](C)CN[C@H]1[C@H]2C` [cyclopamine], the “significant growth inhibition, dependence on PTCH mRNA expression” value in data set [1] (3.0 μM cyclopamine, MTS assay) is on record as “only in tumor lines expressing PTCH mRNA”. Moreover, the inhibition at 3 µM in data set [1] (Homo sapiens, read-out: growth inhibition) is 75 to 95%. Also, the cell killing result in data set [2] is on record as “can be killed by cyclopamine treatment”. In addition, in data set [3] (daily), the “survival and adverse reactions” value was “all mice survived cyclopamine treatment without obvious adverse reactions”. Besides, the “tumor regression (xenograft tumor volume)” value in data set [3] (within 14 days, tumors grown to 180 mm^3, n=9) was “Complete or near complete regression of all nine treated tumors”. The GLI reporter expression entry in data set [4] is reported as “cyclopamine-sensitive”.

For the compound “SHH ligand: recombinant doubly lipid modified Sonic hedgehog (ShhNp) peptide”, the “growth as a function of added SHH concentration” value in data set [5] (PX184 cells with 5E1 at a level just sufficient to block growth (0.1 μg/ml)) is recorded as “Growth correlated positively with increasing concentrations”. In addition, in data set [5] (single passage pancreatic tumor xenograft that did not express PTCH mRNA (PX169)), the growth result was “did not significantly affect growth”. In addition, the change in growth result in data set [6] was “No significant ligand-induced or antibody-induced change in growth”. Besides, the “augmentation of reporter activity” value in data set [7] is recorded as “approximately 8 fold”.
